From US20250188067A1, “SALT AND CRYSTAL FORM OF DIPEPTIDYL PEPTIDASE INHIBITOR COMPOUND” (HAISCO PHARMACEUTICALS PTE. LTD., priority 2022, published 2025)
Converted amounts (≈) assume the structure as drawn.

Assays:
[1] = Hygroscopicity by Dynamic Vapour Sorption (DVS); assay type: physicochemical; conditions: 25° C./80% RH
Procedure: The hygroscopicity of the crystalline A of hydrochloride, crystalline A of malate and crystalline B of adipate was evaluated by a Dynamic Vapour Sorption (DVS) instrument. Crystalline form […] starts with ambient humidity (˜60% RH), and crystalline form B starts with 0% relative humidity (0% RH). The test collected mass change percentage of the sample under constant temperature conditions of 25° C., with changes in humidity (60% RH-95% RH-0% RH-95% RH or 0% RH-95% RH-0% RH). The test results are shown in FIGS. 103, 104 and 105 respectively.

[2] = Solid stability evaluation (XRPD and HPLC) at 25° C./60% RH and 40° C./75% RH; assay type: physicochemical; conditions: for Crystalline form change: XRPD
[3] = HPLC impurities of solid stability samples; assay type: physicochemical
[4] = The pharmacokinetic test of rat; assay type: in vivo; conditions: male SD rats, Gavage (3 mg/kg)
Procedure: • 1.1 Test animals: male SD rats, about 220 g, 6 to 8 weeks old, 6 rats/compound. Purchased from Chengdu Senwell Experimental Animals Co., Ltd. • 1.2 Test design: On the day of the test, 6 SD rats were randomly divided into groups according to body weight. Water and no food for 12 to 14 hours one day before administration, and food 4 hours after administration.
Vehicle for intravenous administration: 5% DMA+5% Solutol+90% Saline; vehicle for gavage administration: 0.5% MC; the reference compound INS1007, which is Compound 2 in patent WO2015110826A1, was prepared according to the method of the patent.
Before and after administration, 0.1 mL of blood was taken from the orbit under isoflurane anesthesia. It was placed in an EDTAK2 centrifuge tube, and centrifuged at 5000 rpm and 4° C. for 10 min, and the plasma was collected. Time points of blood collection in the intravenous groups: 0, 5, 15, 30 min, 1, 2, 4, 6, 8, 24 h; time points of blood collection in the gavage groups: 0, 5, 15, 30 min, 1, 2, 4, 6, 8, 24 h. Before analysis and detection, all samples were stored at −80° C.

Dynamic solubility = assay type: physicochemical; conditions: thermodynamic from solid, 37° C.
Procedure: A sample of about 0.9 mL was taken, centrifuged and filtered, tested the solid by XRPD, and tested the liquid by HPLC concentration and pH.

[5] = biological target: Recombinant human DPP1 enzyme (Homo sapiens (Human), UniProt P53634); test: Activity detection test of DPP1 enzyme in vitro
Chain of Recombinant human DPP1 enzyme (P53634 25-134): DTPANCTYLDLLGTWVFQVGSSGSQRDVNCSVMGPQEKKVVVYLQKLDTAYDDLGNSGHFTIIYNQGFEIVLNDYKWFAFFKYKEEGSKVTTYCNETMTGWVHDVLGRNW
Chain of Recombinant human DPP1 enzyme (P53634 231-394): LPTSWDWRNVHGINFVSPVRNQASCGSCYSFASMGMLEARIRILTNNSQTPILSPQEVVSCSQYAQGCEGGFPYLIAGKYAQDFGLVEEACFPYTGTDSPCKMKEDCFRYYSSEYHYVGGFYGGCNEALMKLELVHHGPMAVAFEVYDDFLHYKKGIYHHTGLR
Chain of Recombinant human DPP1 enzyme (P53634 395-463): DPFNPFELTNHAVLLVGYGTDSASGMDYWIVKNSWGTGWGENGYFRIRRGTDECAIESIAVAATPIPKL

Row | Compound | water sorption [1] [%] | HPLC purity (Area %) ([2]; 25° C./60% RH, 1 week) | Purity/Starting purity (%) ([2]; 25° C./60% RH, 1 week) | Crystalline form change ([2]; 25° C./60% RH, 1 week) | HPLC purity (Area %) ([2]; 25° C./60% RH, 3 weeks) | Purity/Starting purity (%) ([2]; 25° C./60% RH, 3 weeks) | HPLC purity (Area %) ([2]; 40° C./75% RH, 1 week) | Purity/Starting purity (%) ([2]; 40° C./75% RH, 1 week) | Crystalline form change ([2]; 40° C./75% RH, 1 week) | HPLC purity (Area %) ([2]; 40° C./75% RH, 3 weeks) | Purity/Starting purity (%) ([2]; 40° C./75% RH, 3 weeks) | HPLC purity (Area %) ([2]; Starting) | HPLC peak at RRT 1.00 ([3]; RRT 1.00, 25° C./60% RH/1 W) | HPLC peak at RRT 1.00 ([3]; RRT 1.00, 25° C./60% RH/3 W) | HPLC peak at RRT 1.00 ([3]; RRT 1.00, 40° C./75% RH/1 W) | HPLC peak at RRT 1.00 ([3]; RRT 1.00, Starting) | HPLC impurity at RRT 1.12 ([3]; RRT 1.12, 25° C./60% RH/1 W) | HPLC impurity at RRT 1.12 ([3]; RRT 1.12, 25° C./60% RH/3 W) | HPLC impurity at RRT 1.12 ([3]; RRT 1.12, 40° C./75% RH/1 W) | HPLC impurity at RRT 1.12 ([3]; RRT 1.12, 40° C./75% RH/3 W) | also measured
1 | Cn1c(=O)oc2ccc(-c3ccc(C[C@@H](C#N)NC(=O)[C@@H]4CNCCCO4)c(F)c3)cc21.O=C(O)CCCCC(=O)O [crystalline B of adipate] | 0.24 | 99.71 | 100.0 | No | 99.72 | 100.0 | 99.74 | 100.0 | No | 99.72 | 100.0 | 99.74 | 99.71 | 99.72 | 99.74 | 99.74 | 0.29 | 0.28 | 0.26 | 0.28 | HPLC peak at RRT 1.00 ([3]; RRT 1.00, 40° C./75% RH/3 W): 99.72; HPLC impurity at RRT 1.12 ([3]; RRT 1.12, Starting): 0.26
2 | Cn1c(=O)oc2ccc(-c3ccc(C[C@@H](C#N)NC(=O)[C@@H]4CNCCCO4)cc3)cc21 [INS1007, reference compound] | – | – | – | – | – | – | – | – | – | – | – | – | – | – | – | – | – | – | – | – | F [4]: 88.1%
3 | Cl.Cn1c(=O)oc2ccc(-c3ccc(C[C@@H](C#N)NC(=O)[C@@H]4CNCCCO4)c(F)c3)cc21 [crystalline A of hydrochloride] | 0.47 | 99.60 | 100.0 | No | 99.67 | 100.0 | 99.59 | 100.0 | No | 99.17 | 99.5 | 99.63 | 99.60 | 99.67 | 99.59 | 99.63 | 0.14 | 0.13 | 0.12 | 0.18 | HPLC impurity at RRT 1.06 ([3]; RRT 1.06, 25° C./60% RH/1 W): 0.26; HPLC impurity at RRT 1.06 ([3]; RRT 1.06, 25° C./60% RH/3 W): 0.21; HPLC impurity at RRT 1.06 ([3]; RRT 1.06, 40° C./75% RH/1 W): 0.20; HPLC impurity at RRT 1.06 ([3]; RRT 1.06, Starting): 0.21; HPLC impurity at RRT 1.12 ([3]; RRT 1.12, Starting): 0.16; HPLC impurity at RRT 1.16 ([3]; RRT 1.16, 40° C./75% RH/3 W): 0.06; HPLC impurity at RRT 1.28 ([3]; RRT 1.28, 40° C./75% RH/1 W): 0.09; HPLC impurity at RRT 1.28 ([3]; RRT 1.28, 40° C./75% RH/3 W): 0.17
4 | Cn1c(=O)oc2ccc(-c3ccc(C[C@@H](C#N)NC(=O)[C@@H]4CNCCCO4)c(F)c3)cc21.O=C(O)CC(O)C(=O)O [crystalline A of malate] | 1.27 | 99.89 | 100.0 | No | 99.91 | 100.0 | 99.92 | 100.0 | No | 99.92 | 100.0 | 99.90 | 99.89 | 99.91 | 99.92 | 99.90 | 0.11 | 0.09 | 0.08 | 0.08 | HPLC peak at RRT 1.00 ([3]; RRT 1.00, 40° C./75% RH/3 W): 99.92; HPLC impurity at RRT 1.12 ([3]; RRT 1.12, Starting): 0.10
5 | Cn1c(=O)oc2ccc(-c3ccc(C[C@@H](C#N)NC(=O)[C@@H]4CNCCCO4)c(F)c3)cc21 [Compound I, (S)—N—((S)-1-cyano-2-(2-fluoro-4-(3-methyl-2-oxo-2,3-dihydrobenzo[d]oxazol-5-yl)phenyl)ethyl)-1,4-oxazepane-2-carboxamide] | – | – | – | – | – | – | – | – | – | – | – | – | – | – | – | – | – | – | – | – | solubility at 1 h (Dynamic solubility; simulated gastric fluid, SGF): > 5200 µg/mL; solubility at 2 h (Dynamic solubility; simulated gastric fluid, SGF): > 5200 µg/mL; solubility at 4 h (Dynamic solubility; simulated gastric fluid, SGF): > 5300 µg/mL; solubility at 24 h (Dynamic solubility; simulated gastric fluid, SGF): > 5200 µg/mL; solubility at 1 h (Dynamic solubility; FaSSIF): 370 µg/mL (≈ 844 µM); solubility at 2 h (Dynamic solubility; FaSSIF): 360 µg/mL (≈ 821 µM); solubility at 4 h (Dynamic solubility; FaSSIF): 350 µg/mL (≈ 798 µM); solubility at 24 h (Dynamic solubility; FaSSIF): 290 µg/mL (≈ 661 µM); solubility at 1 h (Dynamic solubility; FeSSIF): 2700 µg/mL (≈ 6160 µM); solubility at 2 h (Dynamic solubility; FeSSIF): 2700 µg/mL (≈ 6160 µM); solubility at 4 h (Dynamic solubility; FeSSIF): 2700 µg/mL (≈ 6160 µM); solubility at 24 h (Dynamic solubility; FeSSIF): 2300 µg/mL (≈ 5250 µM); solubility at 1 h (Dynamic solubility; water, H2O): 35 µg/mL (≈ 79.8 µM); solubility at 2 h (Dynamic solubility; water, H2O): 30 µg/mL (≈ 68.4 µM); solubility at 4 h (Dynamic solubility; water, H2O): 16 µg/mL (≈ 36.5 µM); solubility at 24 h (Dynamic solubility; water, H2O): 16 µg/mL (≈ 36.5 µM); inhibitory activity against DPP1 (conclusion in words) [5]: high inhibitory activity; F [4]: >100%
